Test results as given in patent US20060275873A1, “Autoinducer compound to improve the productivity of natamycin streptomyces strains” (priority 2003, published 2006).
“Also recorded” adds a separate entry of the source.

What was measured:
[1] = test system: Streptomyces natalensis npi287; assay: Inducer bioassay: induction of natamycin production in mutant npi287 on solid SPG medium, read as inhibition zone in a Candida utilis overlay; type: cell-based; conditions: for inducing activity on natamycin production by npi287: bioassay, Streptomyces natalensis npi287
Method: Dose-response representation is obtained from measuring points at 0, 110, 166, 220, 333, 446 and 500 nM of IP factor. Y-axis: natamycin-induced inhibition zone diameter in Candida utilis overlays in cm (see Example 5); x-axis: concentration of IP factor in nM.
The biological activity of IP factor was determined by its ability to induce natamycin production by mutant strain Streptomyces natalensis npi287 in solid SPG medium. After allowing growth of Streptomyces natalensis npi287 for 2 days at 30° C., samples of culture broths […] or different fractions from IP factor purification were added to wells (7 mm diameter) in the agar layer. The plate was overlaid with a culture of Candida utilis and incubated for 24 h at 28° C. The increment of the diameter of the natamycin inhibition zone after induction of natamycin in strain npi287 was proportional to the amount of IP factor in the sample.
The availability of the pure IP factor made it possible to quantify its inducing effect using the standard inducer assay with the npi287 strain (FIG. 2). […] The IP factor increased two-fold the diameter of natamycin inhibition zone (to above 50 millimeters) at concentration of 350 nM and the assay was saturated at concentrations above 400 nM. A threshold level of IP factor of about 50 nM was always required to detect the induction of natamycin production.

[2] = test system: Streptomyces griseus HH1; conditions: stated as well-known; cited from earlier work
[3] = test system: Streptomyces natalensis (wild type and npi287 mutant); assay: Stimulation of sporulation of Streptomyces natalensis; type: cell-based
[4] = test system: Streptomyces griseus HH1; assay: Restoration of streptomycin production in the A factor negative strain; type: cell-based; conditions: HPLC-pure IP factor, Streptomyces griseus HH1 mutant
From the text: In the examples given below, the following strains were used: The wild type Streptomyces natalensis ATCC 27448 was used as the parental strain to isolate different npi mutants. Streptomyces natalensis cultures were maintained in solid TBO sporulation medium (containing 20 g tomato paste per liter; 25 g oat meal per liter; and 25 g agar per liter) as described by Aparicio et al. (Chem. Biol. 7, 895-905, 2000). Candida utilis CECT 1061 (synonym Pichia jadinii) was used as test strain in the bioassay of the antifungal activity of natamycin. Cultures of Streptomyces griseus IFO 13350 (formerly described as Streptomyces bikiniensis IFO 13350) were used to produce A factor in YMPG medium (Horinouchi et al., J. Antibiot. 38, 636-641, 1985). Streptomyces griseus HH1 (an A factor negative strain) was used to quantify the A factor inducing activity.
The Streptomyces griseus 35570 A factor was purified by following its biological activity on the test strain Streptomyces griseus HH1, a mutant lacking streptomycin production due to its deficiency in A factor biosynthesis.

[5] = test system: Streptomyces natalensis ATCC 27448; assay: Natamycin production in liquid cultures of the wild type strain with exogenous auto inducer; type: cell-based; conditions: 300 nM
From the text: FIG. 3A: Cell dry weight (▪); y-axis: dry weight concentration in mg/ml; x-axis: time in hours. FIG. 3B: (▴) Control without IP factor addition; (O) with IP factor addition; y-axis: natamycin concentration in μg/ml; x-axis: time in hours.
FIG. 4A: Cell dry weight (♦); y-axis: dry weight concentration in mg/ml; x-axis: time in hours. FIG. 4B: (▪) Control without IP factor addition; (□) with IP factor addition; y-axis: natamycin concentration in μg/ml; x-axis: time in hours.
FIG. 5A: Cell dry weight (▴); y-axis: dry weight concentration in mg/ml; x-axis: time in hours. FIG. 5B: (▪) Control without IP factor addition; (□) with IP factor addition; y-axis: natamycin concentration in μg/ml; x-axis: time in hours.
Four different complex media were used for quantification of the IP factor concentration and its relationship to natamycin production. These include: NBG medium (OXOID) supplemented with glucose (5 g/l); YEME medium (yeast extract 3 g/l; peptone […]; malt extract 3 g/l and glucose 10 g/l); TSB medium (DIFCO) and YED medium (yeast extract 10 g/l; glucose 10 g/l). In addition two defined media were also used to quantify the inducer production: Streptomyces MM (Kieser et al. in “Practical Streptomyces Genetics”, John Innes Foundation, Norwich, UK, 2000) and Lechevalier defined medium (Martin and McDaniel, Eur. J. Appl. Microbiol. 3, 135-144, 1976).
The production of natamycin in liquid cultures was routinely quantified by spectrophotometric determination at 319 nm. A 0.5 ml aliquot of the culture was extracted with 5 ml of methanol and diluted with distilled water; the concentration of natamycin was quantified as described previously (Aparicio et al. (Chem. Biol. 7, 895-905, 2000)) using a pure sample of natamycin (Sigma Chem. Co) as standard.

[6] = Solvent extraction of clarified culture broth (partition between organic and aqueous phase); type: physicochemical
Method: The culture broth (15 liters) from Streptomyces natalensis wild type strain grown for 24 h in YED medium in a Braun Biostat C fermentor was concentrated 10-fold in a vacuum evaporator. The concentrated broth was clarified by precipitating the proteins with 6M HCl at pH 3.0 in the cold room. The clarified broth was adjusted to pH 7.0 with concentrated NaOH and extracted. […] Enough IP factor could be extracted by repeated extractions with ethyl acetate to allow a good purification. The organic phases were then collected and concentrated to dryness under vacuum and the resultant product was dissolved in 100 ml of 10% methanol (v/v) and applied to an active carbon column (30×3 cm) previously equilibrated with the same solvent (10% methanol, v/v). The retained compounds including the IP factor were fractionated by stepwise elution (flow 2 ml/min) with 50% methanol (v/v), 100% methanol, 10% ethyl acetate in methanol (v/v), 50% ethyl acetate in methanol (v/v), and pure ethyl acetate (100%). […] The IP factor-containing fraction was then concentrated, applied onto a Sephadex GIO column (2000×1 cm) and eluted with distilled water (flow 0.8 ml/min). This size exclusion chromatography yielded 40 ml of active fractions.

Structure (SMILES) | inducing activity on natamycin production by npi287 [1] | stimulation of sporulation [2] | stimulation of sporulation ([3]; npi287 mutant) | stimulation of sporulation ([3]; wild type Streptomyces natalensis) | diameter of natamycin inhibition zone ([1]; 350 nM IP factor) | fold increase of the diameter of natamycin inhibition zone ([1]; 350 nM IP factor) | threshold level required to detect induction of natamycin production ([1]; standard inducer assay) | IP factor concentration to which npi287 clearly responded ([1]; standard inducer assay, FIG. 2) [nM] | concentration above which the assay was saturated ([1]; standard inducer assay, FIG. 2) | upper concentration of linear response of antibiotic production ([1]; standard inducer assay, FIG. 2) | restoration of streptomycin production [4] | production of natamycin on addition of exogenous inducer ([5]; NBG medium, FIG. 4) | production of natamycin on addition of exogenous inducer ([5]; TSB medium, FIG. 3) | production of natamycin on addition of exogenous inducer ([5]; YEME medium, FIG. 5) | part remaining in the aqueous phase ([6]; ethyl acetate extraction at acidic, neutral or slightly basic (pH 7.5) pH) | part remaining in the aqueous phase ([6]; repeated extraction with chloroform)
CC(C)CCCCC(=O)[C@@H]1C(=O)OCC1CO (stereo partly drawn) [A factor, 2-(6′-methylheptanoyl)-3R-hydroxymethyl-4-butanolide, reference compound] | some inducing activity; also recorded: elicited natamycin production | stimulation of sporulation | – | – | – | – | – | – | – | – | – | – | – | – | – | –
NC(CO)(CO)C(N)(CO)CO [IP factor, 2,3-diamino-2,3-bis(hydroxymethyl)-1,4-butanediol] | strong inducing activity | – | did not stimulate sporulation | did not stimulate sporulation | above 50 millimeters | two-fold | about 50 nM | 100 | above 400 nM | up to 350 nM | negative | stimulated | stimulated | stimulated | significant proportion | about 80%
